Results on 40 compounds are retold here after PubChem BioAssay AID702 (NMMLSC, 2007).

Inconclusive results are not listed. Calls of active or inactive are those of the source. No rule for the calls is given here.

Integrin alpha-4 (Homo sapiens), sequence (P13612 whole entry, looked up): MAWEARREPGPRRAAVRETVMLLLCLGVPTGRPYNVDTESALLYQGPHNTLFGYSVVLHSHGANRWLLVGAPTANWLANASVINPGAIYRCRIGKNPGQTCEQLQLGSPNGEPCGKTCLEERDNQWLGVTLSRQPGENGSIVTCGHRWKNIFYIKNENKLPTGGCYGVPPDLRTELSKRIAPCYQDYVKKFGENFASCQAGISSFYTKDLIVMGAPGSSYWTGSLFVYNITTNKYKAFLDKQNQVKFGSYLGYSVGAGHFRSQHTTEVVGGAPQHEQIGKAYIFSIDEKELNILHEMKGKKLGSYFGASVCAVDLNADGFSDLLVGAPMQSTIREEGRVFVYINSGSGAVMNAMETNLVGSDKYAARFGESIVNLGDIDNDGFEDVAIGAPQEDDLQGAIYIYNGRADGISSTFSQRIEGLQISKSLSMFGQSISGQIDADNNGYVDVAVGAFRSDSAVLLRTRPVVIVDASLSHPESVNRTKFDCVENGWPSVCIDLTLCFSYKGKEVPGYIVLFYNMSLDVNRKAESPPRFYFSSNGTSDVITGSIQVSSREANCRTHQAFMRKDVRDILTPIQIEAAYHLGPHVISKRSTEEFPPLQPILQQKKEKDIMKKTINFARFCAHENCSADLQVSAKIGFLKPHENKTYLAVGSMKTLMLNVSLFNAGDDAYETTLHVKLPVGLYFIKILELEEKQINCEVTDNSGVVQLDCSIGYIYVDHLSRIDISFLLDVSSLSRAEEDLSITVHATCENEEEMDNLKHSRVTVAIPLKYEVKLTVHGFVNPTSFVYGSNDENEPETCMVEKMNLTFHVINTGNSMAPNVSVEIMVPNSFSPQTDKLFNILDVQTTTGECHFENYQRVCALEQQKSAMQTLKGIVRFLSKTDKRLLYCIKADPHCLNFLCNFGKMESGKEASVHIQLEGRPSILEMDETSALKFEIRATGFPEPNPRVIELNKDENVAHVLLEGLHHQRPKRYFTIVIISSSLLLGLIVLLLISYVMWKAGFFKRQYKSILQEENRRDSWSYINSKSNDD

The assay concerns the target Integrin alpha-4 (Homo sapiens) (UniProt P13612). The experiment in a line: inhibition of LDV ligand binding to VLA-4 – cell-based, LDV-FITC binding, flow cytometry, dose response (AID 702).
`O=C1C(CCS(=O)c2ccccc2)C(=O)N(c2ccccc2)N1c1ccccc1` (stereo not given): the 50% effective concentration (EC50) was 17.3 µM.
The same measure, in the same setting: the result for `CCOc1cc2[nH]c(=O)n(CC3CCC(C(=O)NC(C)CC)CC3)c(=O)c2cc1OCC` (stereo not given) reads 4.27 µM.
On to `CCCCN1C(=O)C(c2ccccc2)N(c2ccccc2)C1=O` (stereo not given), for which the outcome was inactive.
For the compound `COc1cc2[nH]c(=O)n(CCCC(=O)N3CCOCC3)c(=O)c2cc1OC`, the outcome was inactive.
Consider `CCOc1cc2[nH]c(=O)n(CC3CCC(C(=O)NCCC(C)C)CC3)c(=O)c2cc1OCC` (stereo not given), for which the EC50 was 2.34 µM.
Turning to `CCCOc1ccc(C(CC(=O)O)NC(=O)C23CC4CC(CC(C4)C2)C3)cc1` (stereo not given), the EC50 was 0.08 µM.
As to `CCOc1cc2[nH]c(=O)n(CCCC(=O)NCc3ccco3)c(=O)c2cc1OCC`, the outcome was inactive.
Still for that read-out and setting: the result for `COc1cccc2sc(Nc3nc(-c4ccncc4)cs3)nc12` reads “inactive”.
With `Cc1cc(C)cc(-n2ccnc(SCC(=O)Nc3ccc(Cl)cc3F)c2=O)c1`, the EC50 was 52.6 µM.
Consider `CCCCCNC(=O)CCCCn1c(=O)[nH]c2cc(OCC)c(OCC)cc2c1=O`, for which the half-maximal effective concentration (EC50) was 4.6 µM.
On the same count and under the same terms, the result for `N/C(=N/O)c1nc(N2CCCC2)nc(N(c2ccccc2)c2ccccc2)n1` reads 20.2 µM; that for `C=C(C)C1Cc2c(C)nn(-c3nc(C)cc(C)n3)c2C1` (stereo not given), 45.1 µM.
`COc1cc2[nH]c(=O)n(CCC(=O)N3CCc4ccccc4C3)c(=O)c2cc1OC`: the outcome was inactive.
The same measure, in the same setting: the result for `COc1ccccc1-c1nnc(Nc2nc3c(OC)cccc3s2)o1` reads “inactive”.
Consider `CC(C)Oc1ccc(C(CC(=O)O)NC(=O)C2CCCCC2)cc1` (stereo not given), for which the concentration giving a half-maximal response (EC50) is 4.13 µM.
With `CCCCC1(C)C(=O)N(c2ccccc2)N(c2ccccc2)C1=O`, the result was inactive.
For `O=C(NCC12CC3CC(CC(C3)C1)C2)c1nn2c(c1Cl)NC(c1ccco1)CC2C(F)(F)F` (stereo not given), the result was inactive.
The same measure, in the same setting: the result for `Cn1c(=O)cc(SCC(=O)N2CCN(C3CCCCC3)CC2)c2ccccc21` reads “inactive”.
On to `O=C(Cn1nc(-c2ccc3c(c2)OCCO3)ccc1=O)Nc1ccc(N2CCOCC2)cc1`, for which the concentration giving a half-maximal response (EC50) is 14.1 µM.
`COc1cc2[nH]c(=O)n(CCC(=O)NCc3cccnc3)c(=O)c2cc1OC`: the result was inactive.
For `COc1cc(Cn2c(-c3nonc3N)nc3ccccc32)ccc1C`, the outcome was inactive.
`Cc1oc2cc(O)ccc2c(=O)c1Oc1ccccc1Br`: the EC50 was 31.8 µM.
Turning to `CCOc1cc2[nH]c(=O)n(CCCCCC(=O)NCc3ccco3)c(=O)c2cc1OCC`, the outcome was inactive.
For `Cc1onc(-c2ccccc2)c1C(=O)NC(CC(=O)O)c1ccc(OC(C)C)cc1` (stereo not given), the EC50 is 6.5 µM.
On the same count and under the same terms, the result for `CCCCC1C(=O)N(c2ccccc2)N(c2ccccc2)C1=O` reads 1.06 µM; that for `CCOc1ccc(C(CC(=O)O)NC(=O)C23CC4CC(CC(C4)C2)C3)cc1` (stereo not given), 0.09 µM.
Regarding `COc1cccc2sc(Nc3nc(C)c(C(C)=O)s3)nc12`, the outcome was inactive.
On to `O=C1NC(=O)C(c2ccccc2)N1` (stereo not given), for which the result was inactive.
On to `O=C(O)CCCn1c(=O)[nH]c2cc3c(cc2c1=O)OCO3`, for which the outcome was inactive.
Same read-out and setting: with `CCCCN1C(=O)N(c2ccccc2)C(CCCC)(c2ccccc2)C1=O` (stereo not given) the entry was “inactive”; with `CCOc1cc2[nH]c(=O)n(CCCC(=O)N3CCCC3)c(=O)c2cc1OCC`, “inactive”.
For `CCOc1cc2[nH]c(=O)n(CCCCC(=O)NC3CCCCCC3)c(=O)c2cc1OCC`, the 50% effective concentration (EC50) is 5.13 µM.
For the compound `O=C1NC(=O)N(c2ccccc2)C1c1ccccc1` (stereo not given), the outcome was inactive.
On the same count and under the same terms, the result for `CCCCC1(O)C(=O)N(c2ccccc2)N(c2ccccc2)C1=O` reads “inactive”.
On the same count and under the same terms, the result for `CCOc1cc2[nH]c(=O)n(CCC(=O)NCCOC)c(=O)c2cc1OCC` reads “inactive”; that for `CCCCC1(C(=O)O)C(=O)N(c2ccccc2)N(c2ccccc2)C1=O`, “inactive”.
Consider `CCOc1cc2[nH]c(=O)n(CCCN3CCCC3=O)c(=O)c2cc1OCC`, for which the result was inactive.
Turning to `COc1cccc2sc(Nc3nnc(-c4ccccc4Cl)o3)nc12`, the EC50 is 5.14 µM.
In the case of `CCCCN1C(=O)NC(c2ccccc2)C1=O` (stereo not given), the outcome was inactive.
The same measure, in the same setting: the result for `COc1cc2[nH]c3c(N4CCN(c5ccccn5)CC4)ncnc3c2cc1OC` reads “inactive”.
